In the RepoRT retention time repository (doi:10.1016/j.scitotenv.2015.08.078):
Where a name gives a salt, the structure may show the parent alone.

Test: RP, Waters ACQUITY UPLC BEH C18, 100 × 2.1 mm, 1.7 µm, 0.3 mL/min, estimated dead time 0.73 min; A: water + 0.1% formic acid, pH 3; B: methanol + 0.1% formic acid, pH 3; gradient (min/%B) 0/10 14/90 16/90 18/10
Details: stereoisomer not certain

Row | SMILES | LC retention time
1 | COP(=S)(OC)SCC(=O)N(c1ccc(Cl)cc1)C(C)C [Anilofos] | 11.7 min
2 | CC(C)NCC(O)COc1ccc(CC(N)=O)cc1 (stereo not given) [Atenolol] | 8.74 min
3 | CC(C)c1c(C(=O)Nc2ccccc2)c(-c2ccccc2)c(-c2ccc(F)cc2)n1CCC(O)CC(O)CC(=O)O (stereo not given) [Atorvastatin] | 12 min
4 | CCNc1nc(Cl)nc(NC(C)C)n1 [Atrazine] | 9.34 min
5 | Clc1ccc(C2(Cn3cncn3)OCCO2)c(Cl)c1 [Azaconazole] | 9.01 min
6 | COP(=O)(OC)SCn1c(=O)oc2cc(Cl)cnc21 [Azamethiphos] | 7.22 min
7 | OC(CCCN1CCN(c2ccccn2)CC1)c1ccc(F)cc1 (stereo not given) [Azaperol] | 4.96 min
8 | O=C(CCCN1CCN(c2ccccn2)CC1)c1ccc(F)cc1 [Azaperone] | 5.63 min
9 | CCOP(=S)(OCC)SCn1nnc2ccccc2c1=O [Azinphos-ethyl] | 10.8 min
10 | COP(=S)(OC)SCn1nnc2ccccc2c1=O [Azinphos-methyl] | 10.1 min
11 | CCC1OC(=O)C(C)C(OC2CC(C)(OC)C(O)C(C)O2)C(C)C(OC2OC(C)CC(N(C)C)C2O)C(C)(O)CC(C)CN(C)C(C)C(O)C1(C)O (stereo not given) [Azithromycin] | 6.2 min
12 | COC=C(C(=O)OC)c1ccccc1Oc1cc(Oc2ccccc2C#N)ncn1 [Azoxystrobin] | 10.6 min
13 | CCC(=O)OCC(=O)C1(OC(=O)CC)C(C)CC2C3CCC4=CC(=O)C=CC4(C)C3(Cl)C(O)CC21C (stereo not given) [Beclometasone dipropionate] | 12.3 min
14 | COC(=O)C(C)N(C(=O)Cc1ccccc1)c1c(C)cccc1C (stereo not given) [Benalaxyl] | 11.7 min
15 | O=C(O)Cn1c(=O)sc2cccc(Cl)c21 [Benazolin] | 4.59 min
16 | CNC(=O)Oc1cccc2c1OC(C)(C)O2 [Bendiocarb] | 7.43 min
17 | CCCCNC(=O)n1c(NC(=O)OC)nc2ccccc21 [Benomyl] | 11.6 min
18 | CC1COc2ccccc2N1C(=O)C(Cl)Cl (stereo not given) [Benoxacor] | 9.47 min
19 | COC(=O)c1ccccc1CS(=O)(=O)NC(=O)Nc1nc(OC)cc(OC)n1 [Bensulfuron methyl] | 9.29 min
20 | CC(C)N1C(=O)c2ccccc2NS1(=O)=O [Bentazon] | 3.68 min
21 | CCON=C(OC(=O)c1ccccc1)c1c(OC)ccc(Cl)c1OC [Benzoximate] | 12.1 min
22 | CCCCOC(=O)c1ccccc1C(=O)OCc1ccccc1 [Benzyl butyl phthalate] | 12.4 min

Row | SMILES | LC retention time
23 | COc1ccc(-c2ccccc2)cc1NNC(=O)OC(C)C [Bifenazate] | 10.8 min
24 | COC(=O)c1cc(Oc2ccc(Cl)cc2Cl)ccc1[N+](=O)[O-] [Bifenox] | 12.2 min
25 | CC(C)=CC1C(C(=O)OCc2coc(Cc3ccccc3)c2)C1(C)C (stereo not given) [Bioresmethrin] | 14.2 min
26 | CCCCC(CC)COC(=O)CCCCC(=O)OCC(CC)CCCC (stereo not given) [Bis-(2-ethylhexyl) adipate] | 15.3 min
27 | CCCCC(CC)COC(=O)c1ccccc1C(=O)OCC(CC)CCCC (stereo not given) [Bis-(2-ethylhexyl) phthalate] | 15.3 min
28 | CC(C)(C)C(O)C(Oc1ccc(-c2ccccc2)cc1)n1cncn1 (stereo not given) [Bitertanol] | 12 min
29 | O=C(Nc1ccccc1-c1ccc(Cl)cc1)c1cccnc1Cl [Boscalid] | 10.7 min
30 | CCC(C)n1c(=O)[nH]c(C)c(Br)c1=O (stereo not given) [Bromacil] | 7.96 min
31 | CC(C)(C)NCC(O)c1cc(Br)c(N)c(Br)c1 (stereo not given) [Brombuterol] | 5.9 min
32 | CN(Cc1cc(Br)cc(Br)c1N)C1CCCCC1 [Bromhexine] | 14.1 min
33 | Clc1ccc(C2(Cn3cncn3)CC(Br)CO2)c(Cl)c1 (stereo not given) [Bromuconazole I] | 10.6 min
34 | CCCC1OC2CC3C4CCC5=CC(=O)C=CC5(C)C4C(O)CC3(C)C2(C(=O)CO)O1 (stereo not given) [Budesonide] | 10.9 min
35 | COc1cc(OC)c(C(=O)CCCN2CCCC2)c(OC)c1 [Buflomedil HCl] | 5 min
36 | CCCCc1c(C)nc(NCC)nc1OS(=O)(=O)N(C)C [Bupirimate] | 11.2 min
37 | CC(C)N1C(=O)N(c2ccccc2)CSC1=NC(C)(C)C [Buprofezin] | 13.1 min
38 | CCC(C)Nc1c([N+](=O)[O-])cc(C(C)(C)C)cc1[N+](=O)[O-] (stereo not given) [Butralin] | 13.5 min
39 | CCOP(=O)(SC(C)CC)SC(C)CC (stereo not given) [Cadusafos] | 12.2 min
40 | CC(C)NCC(O)COc1cccc2[nH]c3ccccc3c12 (stereo not given) [Carazolol] | 6.24 min
41 | CNC(=O)Oc1cccc2ccccc12 [Carbaryl] | 7.91 min
42 | COC(=O)Nc1nc2ccccc2[nH]1 [Carbendazim] | 3.42 min
43 | CNC(=O)Oc1cccc2c1OC(C)(C)C2O (stereo not given) [Carbofuran-3-OH] | 4.08 min
44 | CNC(=O)Oc1cccc2c1OC(C)(C)C2 [Carbofuran] | 8.15 min

Row | SMILES | LC retention time
45 | CC1=C(C(=O)Nc2ccccc2)SCCO1 [Carboxin] | 7.77 min
46 | CCOC(=O)C(Cl)Cc1cc(-n2nc(C)n(C(F)F)c2=O)c(F)cc1Cl (stereo not given) [Carfentrazone-ethyl] | 11.4 min
47 | NC(C(=O)NC1C(=O)N2C(C(=O)O)=C(Cl)CSC12)c1ccccc1 (stereo not given) [Cefaclor] | 4.02 min
48 | CC1=C(C(=O)O)N2C(=O)C(NC(=O)C(N)c3ccc(O)cc3)C2SC1 (stereo not given) [Cefadroxil] | 4.91 min
49 | CC1=C(C(=O)O)N2C(=O)C(NC(=O)C(N)c3ccccc3)C2SC1 (stereo not given) [Cefalexin] | 3.25 min
50 | CON=C(C(=O)NC1C(=O)N2C(C(=O)O)=C(COC(C)=O)CSC12)c1csc(N)n1 (stereo not given) [Cefotaxime] | 4.41 min
51 | CON=C(C(=O)NC1C(=O)N2C(C(=O)[O-])=C(C[n+]3cccc4c3CCCC4)CSC12)c1csc(N)n1 (stereo not given) [Cefquinome] | 3.4 min
52 | CON=C(C(=O)NC1C(=O)N2C(C(=O)O)=C(COC(N)=O)CSC12)c1ccco1 (stereo not given) [Cefuroxime] | 9.51 min
53 | O=C(NC(CO)C(O)c1ccc([N+](=O)[O-])cc1)C(Cl)Cl (stereo not given) [Chloramphenicol] | 5.3 min
54 | CNC(=O)c1cc(Cl)cc(C)c1NC(=O)c1cc(Br)nn1-c1ncccc1Cl [Chlorantraniliprole] | 10.4 min
55 | CON(C)C(=O)Nc1ccc(Br)c(Cl)c1 [Chlorbromuron] | 10.1 min
56 | CCOP(=O)(OCC)OC(=CCl)c1ccc(Cl)cc1Cl [Chlorfenvinphos] | 12 min
57 | O=C(NC(=O)c1c(F)cccc1F)Nc1cc(Cl)c(Oc2ncc(C(F)(F)F)cc2Cl)c(Cl)c1 [Chlorfluazuron] | 13.9 min
58 | Nc1cnn(-c2ccccc2)c(=O)c1Cl [Chloridazon (Pyrazon)] | 4.82 min
59 | CCOC(=O)c1ccccc1S(=O)(=O)NC(=O)Nc1nc(Cl)cc(OC)n1 [Chlorimuron ethyl] | 8.65 min
60 | CCOP(=S)(OCC)Oc1nc(Cl)c(Cl)cc1Cl [Chloropyrifos] | 14.1 min
61 | CN(C)CCC(c1ccc(Cl)cc1)c1ccccn1 (stereo not given) [Chlorpheniramine] | 7.27 min
62 | CN(C)CCCN1c2ccccc2Sc2ccc(Cl)cc21 [Chlorpromazine] | 10.3 min
63 | COP(=S)(OC)Oc1nc(Cl)c(Cl)cc1Cl [Chlorpyriphos-methyl] | 12.1 min
64 | COc1nc(C)nc(NC(=O)NS(=O)(=O)c2ccccc2Cl)n1 [Chlorsulfuron] | 7.94 min
65 | CC(C)(C)NCC(O)c1ccc(N)c(C#N)c1 (stereo not given) [Cimbuterol] | 2.78 min
66 | CN=C(NC#N)NCCSCc1nc[nH]c1C [Cimetidine] | 2.28 min

Row | SMILES | LC retention time
67 | COCCOc1ccccc1S(=O)(=O)NC(=O)Nc1nc(OC)nc(OC)n1 [Cinosulfuron] | 6.25 min
68 | O=C(O)c1cn(C2CC2)c2cc(N3CCNCC3)c(F)cc2c1=O [Ciprofloxacin] | 3.93 min
69 | CCC1OC(=O)C(C)C(OC2CC(C)(OC)C(O)C(C)O2)C(C)C(OC2OC(C)CC(N(C)C)C2O)C(C)(OC)CC(C)C(=O)C(C)C(O)C1(C)O (stereo not given) [Clarithromycin] | 10.5 min
70 | CC(C)(C)NCC(O)c1cc(Cl)c(N)c(Cl)c1 (stereo not given) [Clenbuterol] | 5.15 min
71 | CCC(C)(C)NCC(O)c1cc(Cl)c(N)c(Cl)c1 (stereo not given) [Clenpenterol] | 6.19 min
72 | CC(C)NCC(O)c1cc(Cl)c(N)c(Cl)c1 (stereo not given) [Clenproperol] | 4.05 min
73 | CCCC1CC(C(=O)NC(C(C)Cl)C2OC(SC)C(O)C(O)C2O)N(C)C1 (stereo not given) [Clindamycin] | 7.04 min
74 | CCC(=O)OC1(C(=O)CCl)C(C)CC2C3CCC4=CC(=O)C=CC4(C)C3(F)C(O)CC21C (stereo not given) [Clobetasol propionate] | 11.4 min
75 | C#CCOC(=O)C(C)Oc1ccc(Oc2ncc(Cl)cc2F)cc1 (stereo not given) [Clodinafop-propargyl] | 11.5 min
76 | CC1(C)CON(Cc2ccccc2Cl)C1=O [Clomazone] | 9.54 min
77 | CCCCCC(C)OC(=O)COc1ccc(Cl)c2cccnc12 (stereo not given) [Cloquintocet - mexyl] | 13 min
78 | CNC(=N[N+](=O)[O-])NCc1cnc(Cl)s1 [Clothianidin] | 4.13 min
79 | CCOC(=O)C1C(OC(=O)c2ccccc2)CC2CCC1N2C (stereo not given) [Cocaethylene] | 6.53 min
80 | COC(=O)C1C(OC(=O)c2ccccc2)CC2CCC1N2C (stereo not given) [Cocaine] | 5.49 min
81 | CC12CCC(=O)C=C1CCC1C2C(O)CC2(C)C(C(=O)CO)CCC12 (stereo not given) [Corticosterone] | 9.37 min
82 | CC12CCC(=O)C=C1CCC1C2C(=O)CC2(C)C1CCC2(O)C(=O)CO (stereo not given) [Cortisone] | 8.13 min
83 | CCOP(=S)(OCC)Oc1ccc2c(C)c(Cl)c(=O)oc2c1 [Coumaphos] | 12.4 min
84 | CCNc1nc(Cl)nc(NC(C)(C)C#N)n1 [Cyanazine] | 7.05 min
85 | CCOP(=S)(Oc1ccc(C#N)cc1)c1ccccc1 (stereo not given) [Cyanofenphos] | 11.7 min
